Assay results as given in ChEMBL document CHEMBL5131469, “Design, synthesis and biological evaluation of novel procaine derivatives for intravenous anesthesia” (Bioorg Med Chem Lett, 2022).
pIC50: −log10 of the molar value. Active and inactive are the calls of the source. No cut-off for these calls is given here.

Legend:
[1] = Therapeutic index, ratio of LD50 for toxicity in mouse to ED50 for anesthetic activity in mouse; type: organism-based; conditions: in vivo, read-out: Ratio LD50/ED50
[2] = Toxicity in mouse administered as single injection via caudal vein; conditions: in vivo, route iv
[3] = Lipophilicity, log D of the compound; type: physicochemical; conditions: octanol/water
[4] = test system: Mus musculus; test: Anesthetic activity in mouse assessed as loss of righting […] administered as single injection via caudal vein; type: functional; conditions: route iv
[5] = Solubility of the compound at pH 2; type: physicochemical; conditions: buffer
[6] = test system: Mus musculus; test: Anesthetic activity in mouse assessed as reduction in recovery time of righting reflex at 1.5 times ED50, iv; type: functional, organism-based
[7] = Toxicity in mouse assessed as muscular rigidity at 1.5 times ED50, iv; conditions: in vivo
[8] = Toxicity in mouse assessed as ankylosis at 1.5 times ED50, iv; conditions: in vivo
[9] = Toxicity in mouse assessed as severe respiratory suppression at 1.5 times ED50, iv; conditions: in vivo
[10] = Toxicity in mouse assessed as convulsion at 1.5 times ED50, iv; conditions: in vivo
[11] = Toxicity in mouse assessed as angular tension at 1.5 times ED50, iv; conditions: in vivo
[12] = Toxicity in iv dosed rat administered continuously; type: organism-based; conditions: in vivo
[13] = Toxicity in iv dosed rat assessed as cyanosis administered continuously; type: organism-based; conditions: in vivo
[14] = Toxicity in iv dosed rat assessed as convulsion administered continuously; type: organism-based; conditions: in vivo
[15] = Cardiotoxicity in iv dosed rat assessed as change in alpha-HBDH level administered continuously; type: toxicity, organism-based; conditions: in vivo
[16] = Cardiotoxicity in iv dosed rat assessed as change in CK-MB level administered continuously; type: toxicity, organism-based; conditions: in vivo
[17] = Hepatotoxicity in iv dosed rat assessed as change in AST level administered continuously; type: toxicity, organism-based; conditions: in vivo
[18] = Therapeutic index, ratio of LD50 for toxicity in iv dosed rat to ED50 for anesthetic activity in iv dosed rat; type: organism-based; conditions: in vivo, read-out: Ratio LD50/ED50
[19] = Toxicity in iv dosed rat assessed as irregular respiratory rhythm administered continuously; type: organism-based; conditions: in vivo
[20] = Toxicity in mouse assessed as adverse effect at 1.5 times ED50, iv; conditions: in vivo
[21] = Hepatotoxicity in iv dosed rat assessed as morphological change in liver administered continuously; type: toxicity, organism-based; conditions: in vivo
[22] = Nephrotoxicity in iv dosed rat assessed as change in creatinine level administered continuously; type: toxicity, organism-based; conditions: in vivo
[23] = Nephrotoxicity in iv dosed rat assessed as morphological change in kidney administered continuously; type: toxicity, organism-based; conditions: in vivo
[24] = Cardiotoxicity in iv dosed rat assessed as morphological change in heart administered continuously; type: toxicity, organism-based; conditions: in vivo
[25] = test system: Rattus norvegicus; test: Anesthetic activity in iv dosed rat assessed as loss of righting […] administered continuously; type: functional
[26] = Toxicity in iv dosed rat assessed as muscle fibrillation administered continuously; type: organism-based; conditions: in vivo
[27] = Hepatotoxicity in iv dosed rat assessed as change in ALT level administered continuously; type: toxicity, organism-based; conditions: in vivo
[28] = Toxicity in iv dosed rat assessed as muscular rigidity administered continuously; type: organism-based; conditions: in vivo
[29] = Toxicity in iv dosed rat assessed as body weight loss administered continuously as infusion for 2 weeks; type: organism-based; conditions: in vivo, 336 h
[30] = Nephrotoxicity in iv dosed rat assessed as change in urea level administered continuously; type: toxicity, organism-based; conditions: in vivo
[31] = Cardiotoxicity in iv dosed rat assessed as change in LDH level administered continuously; type: toxicity, organism-based; conditions: in vivo
[32] = Stability in human liver microsomes measured within 60 mins; type: ADME, Microsome; conditions: 1 h
[33] = biological target: Voltage-gated inwardly rectifying potassium channel KCNH2 (Homo sapiens, UniProt Q12809); test: Inhibition of human ERG
[34] = Stability in plasma (unknown origin); type: ADME, cell-free; conditions: unidentified
[35] = test system: HEK293; test: Reversible inhibition of human NR2B receptor expressed in HEK293 cells assessed as inhibition of L-glutamate-induced open-phase current at 500 uM in presence of glycine by whole-cell patch-clamp method relative to control; type: cell-based

Voltage-gated inwardly rectifying potassium channel KCNH2, sequence (Q12809 whole entry): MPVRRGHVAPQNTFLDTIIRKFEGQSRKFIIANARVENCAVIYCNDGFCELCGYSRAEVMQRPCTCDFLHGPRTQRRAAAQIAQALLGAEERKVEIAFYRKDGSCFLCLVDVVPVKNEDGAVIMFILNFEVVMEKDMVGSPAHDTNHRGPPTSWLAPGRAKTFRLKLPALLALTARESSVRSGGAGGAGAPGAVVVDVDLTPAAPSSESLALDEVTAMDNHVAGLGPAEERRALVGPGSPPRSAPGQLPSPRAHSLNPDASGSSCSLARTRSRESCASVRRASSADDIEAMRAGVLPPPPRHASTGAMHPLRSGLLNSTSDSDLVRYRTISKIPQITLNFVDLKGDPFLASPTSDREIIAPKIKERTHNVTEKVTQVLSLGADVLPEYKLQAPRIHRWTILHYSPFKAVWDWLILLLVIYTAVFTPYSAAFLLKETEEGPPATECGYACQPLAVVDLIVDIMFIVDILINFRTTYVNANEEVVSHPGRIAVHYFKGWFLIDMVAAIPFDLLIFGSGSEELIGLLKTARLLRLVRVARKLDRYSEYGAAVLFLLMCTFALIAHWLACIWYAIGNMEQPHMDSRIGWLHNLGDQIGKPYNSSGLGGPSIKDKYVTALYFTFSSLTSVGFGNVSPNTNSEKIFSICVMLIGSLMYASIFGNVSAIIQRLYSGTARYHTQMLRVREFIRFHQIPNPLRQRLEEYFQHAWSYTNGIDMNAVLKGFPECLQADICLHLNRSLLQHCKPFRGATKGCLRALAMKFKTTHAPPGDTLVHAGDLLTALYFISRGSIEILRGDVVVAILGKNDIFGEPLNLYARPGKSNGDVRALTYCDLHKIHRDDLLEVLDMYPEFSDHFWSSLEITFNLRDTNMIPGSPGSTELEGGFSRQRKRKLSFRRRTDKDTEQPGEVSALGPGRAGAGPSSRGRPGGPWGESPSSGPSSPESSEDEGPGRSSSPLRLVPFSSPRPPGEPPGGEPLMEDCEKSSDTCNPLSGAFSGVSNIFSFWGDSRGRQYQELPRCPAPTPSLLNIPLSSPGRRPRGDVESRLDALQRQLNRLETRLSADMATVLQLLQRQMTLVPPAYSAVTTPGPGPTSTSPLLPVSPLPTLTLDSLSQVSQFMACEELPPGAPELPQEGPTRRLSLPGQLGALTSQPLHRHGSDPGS

SMILES	selectivity ratio [1]	LD50 [2] [mg/kg]	logD [3]	ED50 [4] [mg/kg]	further results
Nc1ccc(C(=O)OCCN2CCOCC2)cc1	2.46	365	0.54	148	
CC1COCCN1CCOC(=O)c1ccc(N)cc1 (stereo unspecified)	2.13	253	0.62	119	
CC1COCC(C)N1CCOC(=O)c1ccc(N)cc1 (stereo unspecified)	2.49	399	0.42	160	
CCN1CCN(CCOC(=O)c2ccc(N)cc2)CC1	< 1.5	64.3	0.81	56	
Nc1ccc(C(=O)OCCN2CC[S+]([O-])CC2)cc1	2.57	110	1.55	42.7	solubility [5]: Insoluble
CC(C)N1CCN(CCOC(=O)c2ccc(N)cc2)CC1	< 1.5	58.6	0.92	52.8	
CC1CN(CCOC(=O)c2ccc(N)cc2)CCO1 (stereo unspecified)	2.08	188	1	90.2	Activity [6]: Active; Activity [7]: Toxic
CC(C)(C)N1CCN(CCOC(=O)c2ccc(N)cc2)CC1	1.86	78.4	1.15	42.2	
Nc1ccc(C(=O)OCCN(CCO)CCO)cc1	< 1.5	160	-0.19	128	
CC1CC(C)CN(CCOC(=O)c2ccc(N)cc2)C1 (stereo unspecified)	2.02	68.5	3.2	33.9	Activity [8]: Toxic; Activity [9]: Toxic; Activity [10]: Toxic; Activity [11]: Toxic
COCCN(CCOC)CCOC(=O)c1ccc(N)cc1	1.89	104	0.83	55.2	
CCN(CC)CCOC(=O)c1ccc(N)cc1 [PROCAINE]	1.65	70.5	1.07	42.8	LD50 [12]: 78.8 mg/kg; Activity [13]: Toxic; Activity [14]: Toxic; Activity [15]: Non-Toxic; Activity [16]: Non-Toxic; Activity [17]: Non-Toxic; selectivity ratio [18]: 1.56; Activity [19]: Toxic; Activity [20]: Toxic; Activity [21]: Non-Toxic; Activity [22]: Non-Toxic; Activity [23]: Non-Toxic; Activity [24]: Non-Toxic; ED50 [25]: 50.4 mg/kg; Activity [26]: Toxic; Activity [27]: Non-Toxic; Activity [28]: Toxic; Activity [29]: Non-Toxic; Activity [30]: Non-Toxic; Activity [31]: Non-Toxic
CCN(CCO)CCOC(=O)c1ccc(N)cc1	< 1.5	115	0.47	90.2	
CCN(CCOC)CCOC(=O)c1ccc(N)cc1	1.52	60.3	0.96	39.6	
Nc1ccc(C(=O)OCCN2CCS(=O)(=O)CC2)cc1	2.53	115	1.63	45.5	solubility [5]: Insoluble
Nc1ccc(C(=O)OCCN2CCSCC2)cc1	2.33	126	1.58	54	solubility [5]: Insoluble
CN1CCN(CCOC(=O)c2ccc(N)cc2)CC1	< 1.5	100	0.43	84.2	
CC1CN(CCOC(=O)c2ccc(N)cc2)CC(C)O1 (stereo unspecified)	2.68	159	1.24	59.3	LD50 [12]: 180 mg/kg; Activity [15]: Non-Toxic; Activity [16]: Non-Toxic; Activity [17]: Non-Toxic; Stability [32]: Stable; selectivity ratio [18]: 2.73; Activity [20]: Toxic; Activity [21]: Non-Toxic; Activity [22]: Non-Toxic; Activity [23]: Non-Toxic; Activity [24]: Non-Toxic; ED50 [25]: 66 mg/kg; Activity [6]: Active; Activity [27]: Non-Toxic; Activity [29]: Non-Toxic; pIC50 [33]: < 4.52; Stability [34]: Unstable; Activity [30]: Non-Toxic; inhibition [35]: > 80%; Activity [31]: Non-Toxic
